Values quoted from earlier work, collected in PubChem BioAssay AID1259409 (Chemical Carcinogenesis Research Information System (CCRIS), 2018).

Test system: rodent chemically induced tumor inhibition, incidence and multiplicity
Experiment: CCRIS tumor inhibitor studies
Settings: Dose [Inhibitor]: 0, Route [Inhibitor]: ORAL, Species: RAT, Promoter: NONE USED

For `CCOC1=C(O)C(=O)O[C@@H]1[C@@H](O)CO`, the “tumour outcome (control, treated, inhibition, significance)” value (Carcinogen: 2-AMINO-1-METHYL-6-PHENYLIMIDAZO[4,5-B]PYRIDINE, 105650-23-5, 1% IN DIET FOR 52 WK CONCURRENTLY WITH CARCINOGEN TREATMENT (STUDY DURATION: 52 WK), Strain/Sex: F344/FEMALE, Target Tissue: Type of Lesion: LARGE INTESTINE: ADENOMA OR CARCINOMA, Dose [Carcinogen]: 0.02% IN DIET FOR 52 WK) is given as 2/18 (11%), 3/18 (17%), -55%, not significant, the “tumour outcome (control, treated, inhibition, significance)” value (Carcinogen: 2-AMINO-1-METHYL-6-PHENYLIMIDAZO[4,5-B]PYRIDINE, 105650-23-5, 1% IN DIET FOR 52 WK CONCURRENTLY WITH CARCINOGEN TREATMENT (STUDY DURATION: 52 WK), Strain/Sex: F344/FEMALE, Target Tissue: Type of Lesion: MAMMARY GLAND: ADENOCARCINOMA, Dose [Carcinogen]: 0.02% IN DIET FOR 52 WK) is given as 8/20 (40%), 6/21 (29%), 28%, not significant and the “tumour outcome (control, treated, inhibition, significance)” value (Carcinogen: DIETHYLNITROSAMINE, 55-18-5, N-METHYL-N-NITROSAUREA, 684-93-5, N-BUTYL-N-(4-HYDROXYBUTYL)NITROSAMINE, 3817-11-6, DIMETHY, Carcinogen: DIETHYLNITROSAMINE, 55-18-5, N-METHYL-N-NITROSAUREA, 684-93-5, N-BUTYL-N-(4-HYDROXYBUTYL)NITROSAMINE, 3817-11-6, DIMETHY, 1% IN THE DIET FOR 24 WK BEGINNING 1 DAY POST CARCINOGEN TREATMENT (STUDY DURATION: 28 WK), Strain/Sex: F344/MALE, Target Tissue: Type of Lesion: SMALL INTESTINE: ADENOMA, Dose [Carcinogen]: 100 MG/KG BW DEN ONCE FOLLOWED BY 20 MG/KG BW MNU 4 TIMES AND 0.05% BBN IN DRINKING WATER DURING FIRST 2 WK THEN 40 MG/K) is given as 33%, 13%, 60%, not significant. For the same compound, the “tumour outcome (control, treated, inhibition, significance)” value (Carcinogen: DIETHYLNITROSAMINE, 55-18-5, N-METHYL-N-NITROSOUREA, 684-93-4, N-BUTYL-N-(4-HYDROXYBUTYL)NITROSAMINE, 3817-11-6, DIMETHY, Carcinogen: DIETHYLNITROSAMINE, 55-18-5, N-METHYL-N-NITROSOUREA, 684-93-4, N-BUTYL-N-(4-HYDROXYBUTYL)NITROSAMINE, 3817-11-6, DIMETHY, 1% IN THE DIET FOR 24 WK BEGINNING 1 DAY POST CARCINOGEN TREATMENT (STUDY DURATION: 28 WK), Strain/Sex: F344/MALE, Target Tissue: Type of Lesion: URINARY BLADDER: CARCINOMA, Dose [Carcinogen]: 100 MG/KG BW DEN ONCE FOLLOWED BY 20 MG/KG BW MNU 4 TIMES AND 0.05% BBN IN DRINKING WATER DURING FIRST 2 WK THEN 40 MG/K) was 7%, 0%, 100%, not significant, the “tumour outcome (control, treated, inhibition, significance)” value (Carcinogen: DIETHYLNITROSAMINE, 55-18-5, N-METHYL-N-NITROSOUREA, 684-93-5, N-BUTYL-N-(4-HYDROXYBUTYL)NITROSAMINE, 3817-11-6, DIMETHY, Carcinogen: DIETHYLNITROSAMINE, 55-18-5, N-METHYL-N-NITROSOUREA, 684-93-5, N-BUTYL-N-(4-HYDROXYBUTYL)NITROSAMINE, 3817-11-6, DIMETHY, 1% IN DIET FOR 24 WK BEGINNING 1 DAY POST CARCINOGEN TREATMENT (STUDY DURATION: 28 WK), Strain/Sex: F344/MALE, Target Tissue: Type of Lesion: THYROID: CARCINOMA, Dose [Carcinogen]: 100 MG/KG BW DEN ONCE FOLLOWED BY 20 MG/KG BW MNU 4 TIMES AND 0.05% BBN IN DRINKING WATER DURING FIRST 2 WK THEN 40 MG/K) was 7%, 0%, 100%, not significant and the “tumour outcome (control, treated, inhibition, significance)” value (Carcinogen: DIETHYLNITROSAMINE, 55-18-5, N-METHYL-N-NITROSOUREA, 684-93-5, N-BUTYL-N-(4-HYDROXYBUTYL)NITROSAMINE, 3817-11-6, DIMETHY, Carcinogen: DIETHYLNITROSAMINE, 55-18-5, N-METHYL-N-NITROSOUREA, 684-93-5, N-BUTYL-N-(4-HYDROXYBUTYL)NITROSAMINE, 3817-11-6, DIMETHY, 1% IN DIET FOR 30 DAYS BEGINNING 1 DAY PRIOR TO CARCINOGEN TREATMENT (STUDY DURATION: 28 WK), Strain/Sex: F344/MALE, Target Tissue: Type of Lesion: URINARY BLADDER: PAPILLOMA, Dose [Carcinogen]: 100 MG/KG BW DEN ONCE FOLLOWED BY 20 MG/KG BW MNU 4 TIMES AND 0.05% BBN IN DRINKING WATER DURING FIRST 2 WK THEN 40 MG/K) was 7%, 7%, 0%, not significant. The “tumour outcome (control, treated, inhibition, significance)” value (Carcinogen: DIETHYLNITROSAMINE, 55-18-5, N-METHYL-N-NITROSOUREA, 684-93-5, N-BUTYL-N-(4-HYDROXYBUTYL)NITROSAMINE, 3817-11-6, DIMETHY, Carcinogen: DIETHYLNITROSAMINE, 55-18-5, N-METHYL-N-NITROSOUREA, 684-93-5, N-BUTYL-N-(4-HYDROXYBUTYL)NITROSAMINE, 3817-11-6, DIMETHY, 1% IN THE DIET FOR 24 WK BEGINNING 1 DAY POST CARCINOGEN TREATMENT ( STUDY DURATION: 28 WK), Strain/Sex: F344/MALE, Target Tissue: Type of Lesion: LARGE INTESTINE: CARCINOMA, Dose [Carcinogen]: 100 MG/KG BW DEN ONCE FOLLOWED BY 20 MG/KG BW MNU 4 TIMES AND 0.05% BBN IN DRINKING WATER DURING FIRST 2 WK THEN 40 MG/K) was 7%, 13%, -86%, not significant and the “tumour outcome (control, treated, inhibition, significance)” value (Carcinogen: DIETHYLNITROSAMINE, 55-18-5, N-METHYL-N-NITROSOUREA, 684-93-5, N-BUTYL-N-(4-HYDROXYBUTYL)NITROSAMINE, 3817-11-6, DIMETHY, Carcinogen: DIETHYLNITROSAMINE, 55-18-5, N-METHYL-N-NITROSOUREA, 684-93-5, N-BUTYL-N-(4-HYDROXYBUTYL)NITROSAMINE, 3817-11-6, DIMETHY, 1% IN THE DIET FOR 24 WK BEGINNING 1 DAY POST CARCINOGEN TREATMENT (STUDY DURATION: 28 WK), Strain/Sex: F344/MALE, Target Tissue: Type of Lesion: LARGE INTESTINE: ADENOMA, Dose [Carcinogen]: 100 MG/KG BW DEN ONCE FOLLOWED BY 20 MG/KG BW MNU 4 TIMES AND 0.05% BBN IN DRINKING WATER DURING FIRST 2 WK THEN 40 MG/K) was 27%, 47%, -74%, not significant.
